# Laboratory results as given in patent US8853129B2 (Dow AgroSciences, LLC., priority 2010, dated 2014).
# Assays:
# Experiment in all cases: Herbicidal activity of mixtures under field conditions, residual weed control in grape crop
# Format in all cases: in vivo
# [1] = tested on: black nightshade (Solanum nigrum; SOLNI); conditions: France, glyphosate tank mixed
# Description: (§1) Trials were conducted under field conditions in France. Trial sites were located in commercially grown European grape crop (Vitis vinifera). The grapes were grown using normal cultural practices for fertilization, seeding, and maintenance to ensure good growth of the crop and the weeds. The trials were conducted using normal research methodology. Trial plots were between 2 to 4.5 meters (m) wide by 5.5 to 10 m long. […] The trial sites had naturally occurring populations of weeds. The weed spectrum included, but was not limited to, black nightshade (Solanum nigrum; SOLNI), common lambsquarter (Chenopodium album; CHEAL), common groundsel (Senecio vulgaris; SENVU), round-leaved […] spuria; KICSP) and common purslane (Portulaca olerace; POROL). […] Glyphosate was tank mixed with all treatments to provide complete foliar control of all weeds so that the residual weed control after application could be evaluated. The application volumes were between 150-325 liters per hectare (L/ha) of water. All application were made using precision gas hand sprayers using a 2 or 3 m boom using flat fan (80° or 110°) nozzles to broadcast the treatments on the soil. The treated plots and control plots were rated blind at various intervals after application. […] Data were collected for all trials and analyzed using various statistical methods. Colby's equation was used to determine the herbicidal effects expected from the mixtures (Colby, S. R. Calculation of the synergistic and antagonistic response of herbicide combinations. Weeds 1967, 15, 20-22). […] A=observed efficacy of active ingredient A at the same concentration as used in the mixture; B=observed efficacy of active ingredient B at the same concentration as used in the mixture.
# [2] = tested on: common groundsel (Senecio vulgaris; SENVU); conditions: penoxsulam 7 g ai/ha; 103 days after application, Fronton, France; glyphosate tank mixed
# Description: as §1
# [3] = tested on: common lambsquarter (Chenopodium album; CHEAL); conditions: penoxsulam 7 g ai/ha; 109 DAA, Fronton, France; glyphosate tank mixed
# Description: as §1
# [4] = tested on: common purslane (Portulaca oleracea; POROL); conditions: penoxsulam 7 g ai/ha; 103 days after application, Fronton, France; glyphosate tank mixed
# Description: as §1
# [5] = tested on: round-leaved fluellen (Kickxia spuria; KICSP); conditions: penoxsulam 7 g ai/ha; 103 days after application, Fronton, France; glyphosate tank mixed
# Description: as §1
compound,measurement,setting,value
COc1cnc(OC)n2nc(NS(=O)(=O)c3c(OCC(F)F)cccc3C(F)(F)F)nc12 [Penoxsulam],Percent Control SOLNI (1) Ob,"[1]; penoxsulam 5.6 g ai/ha, 56 DAA, Bourdic",78%
same,Percent Control SOLNI (2) Ob,"[1]; penoxsulam 7 g ai/ha, 68 DAA, Eshallat",17%
same,Percent Control SENVU Ob,[2],27%
same,Percent Control CHEAL Ob,[3],13%
same,Percent Control POROL Ob,[4],0%
same,Percent Control KICSP Ob,[5],0%
